# Source: patent US5096909A, “Fucosidase inhibitor” (Monsanto Company, priority 1990, dated 1992)
# Key:
# [1] = system: digestive α-glucosidase; conditions: cited from earlier work
# [2] = system: human immunodeficiency virus; conditions: cited from earlier work
# [3] = system: α-glucosidase; conditions: cited from earlier work
# [4] = pKa (Table 1); type: physicochemical
# [5] = system: N-acetyl-β-D-hexosaminidase; assay: Specificity: inhibition of other glycosidases in human liver extract at 1 mM, N-acetyl-β-D-hexosaminidase; type: biochemical; conditions: 4-umbelliferyl glycoside substrate 0.5 mM, optimal pH
# Method: Tissue Post-mortem human liver, which had been stored at -20° C. until required was homogenized in deionized water (50%, w/v) in a Potter-Elvehjem homogenizer and then centrifuged at 37,000 g for 30 min in an MSE 18 centrifuge. The resultant supernatant was used as the source of human glycosidases. A lyophilized extract of liver from Charonia lampas was obtained from Seikagaku Kogyo Co., Japan for the isolation of α-L-fucosidase by the published procedure of Iijima and Egami, J. Biochem. 70, 75-78 (1971).
# Enzyme Assays The glycosidase activities in an extract of human liver were assayed by using the appropriate fluorigenic 4-umbelliferyl glycoside substrate (Koch-Light, Haverhill, Suffolk, U.K.) with a concentration of 0.5 mM at the optimal pH for each enzyme [Burditt et al., Biochem. J. 189, 467-473 (1980)]. The specificity of the inhibitors was determined by assaying the glycosidases in the presence of and absence of a 1 mM solution of each compound. The nature of the inhibition of human α-L-fucosidase, the value of Ki determined by using the Dixon graphical procedure and the effect of pH on the inhibition were investigated as described previously by Al Daher et al., Biochem. J. 258, 613-615 (1989). […]
# [6] = system: mammalian α-L-fucosidases; conditions: cited from earlier work
smiles,measurement,setting,value
OC[C@H]1N[C@H](CO)[C@@H](O)[C@H](O)[C@H]1O [α-Homonojirimycin],inhibition of digestive α-glucosidase activity,[1],potent inhibitor of digestive α-glucosidase activity
"OC[C@H]1NC[C@H](O)[C@@H](O)[C@@H]1O [deoxynojirimycin (1), deoxynojirimycin]",inhibition of human immunodeficiency virus synctium formation,[2]; syncytium formation,inhibit human immunodeficiency virus synctium formation
same,inhibition of human immunodeficiency virus replication,[2]; virus replication,inhibit human immunodeficiency virus synctium formation and virus replication
same,α-glucosidase inhibition,[3],α-glucosidase inhibitor
"C[C@H]1N[C@@H](CO)[C@@H](O)[C@H](O)[C@@H]1O [(6), 2,6-Imino-2,6,7-trideoxy-D-glycero-D-gluco-heptitol]",pKa,[4],7.7
"C[C@@H]1NC[C@@H](O)[C@H](O)[C@@H]1O [DFJ, 1,5-Dideoxy-1,5-imino-L-fucitol]",pKa,[4],8.4
same,Other specificities (% inhibition at 1 mM): N-acetyl-β-D-hexosaminidase,[5],59%
same,inhibition of a number of mammalian α-L-fucosidases,[6],very powerful and highly specific inhibitor of a number of mammalian α-L-fucosidases
